Measured values as given in publication PMC2000878, “Module structure of interphotoreceptor retinoid-binding protein (IRBP) may provide bases for its complex role in the visual cycle – structure/function study of Xenopus IRBP” (BMC Biochemistry, 2007).
Where two headings read alike, the source gives them in different places.

Tests used:
Xenopus IRBP Module 1 = Xenopus IRBP Module 1 (Xenopus laevis, UniProt Q7SZI7); test: Fluorometric titration (enhancement, quenching); assay type: binding; set-up: cDNAs corresponding to the full-length IRBP, module 1, and module 2 were expressed in pThioHis; modules 3 and 4 were expressed in pTrxFus; made in house; host or cells: E. coli Top10 (pThioHis)
Excerpt: (§1) Enhancement of retinol fluorescence and quenching of the intrinsic protein fluorescence were used to monitor binding of all-trans retinol to the recombinant IRBPs. We previously derived an equation that is generally useful for describing such quantum yield changes that are consequent upon ligand binding. This equation has been previously applied to the analysis of binding by monitoring the enhancement of retinol fluorescence. In this case, where excitation is at 330 nm and emission is monitored at 480, the fluorescence enhancement (Fenh) depends on the total retinol concentration (Rt), the dissociation constant (Kd ^all-trans), the number of retinol-binding sites per protein molecule (N) and the total protein concentration (Pt).
(§2) Assuming that there is a single type of noninteracting site on the protein, (Fenh) is expected to be linearly related to the concentration of bound retinol molecules. Fenh is given by the relation
(§3) Fenh=C1+C2[Rtall−trans−(Rtall−trans+NPt+Kdall−trans)^2−4NPtRtall−trans] MathType@MTEF@5@5@+=feaafiart1ev1aaatCvAUfKttLearuWrP9MDH5MBPbIqV92AaeXatLxBI9gBaebbnrfifHhDYfgasaacH8akY=wiFfYdH8Gipec8Eeeu0xXdbba9frFj0=OqFfea0dXdd9vqai=hGuQ8kuc9pgc9s8qqaq=dirpe0xb9q8qiLsFr0=vr0=vr0dc8meaabaqaciaacaGaaeqabaqabeGadaaakeaacqWGgbGrdaWgaaWcbaGaemyzauMaemOBa4MaemiAaGgabeaakiabg2da9iabdoeadnaaBaaaleaacqaIXaqmaeqaaOGaey4kaSIaem4qam0aaSbaaSqaaiabikdaYaqabaGcdaWadaqaaiabdkfasnaaDaaaleaacqWG0baDaeaacqWGHbqycqWGSbaBcqWGSbaBcqGHsislcqWG0baDcqWGYbGCcqWGHbqycqWGUbGBcqWGZbWCaaGccqGHsisldaGcaaqaamaabmaabaGaemOuai1aa0baaSqaaiabdsha0bqaaiabdggaHjabdYgaSjabdYgaSjabgkHiTiabdsha0jabdkhaYjabdggaHjabd6gaUjabdohaZbaakiabgUcaRiabd6eaojabdcfaqnaaBaaaleaacqWG0baDaeqaaOGaey4kaSIaem4saS0aa0baaSqaaiabdsgaKbqaaiabdggaHjabdYgaSjabdYgaSjabgkHiTiabdsha0jabdkhaYjabdggaHjabd6gaUjabdohaZbaaaOGaayjkaiaawMcaamaaCaaaleqabaGaeGOmaidaaOGaeyOeI0IaeGinaqJaemOta4Kaemiuaa1aaSbaaSqaaiabdsha0bqabaGccqWGsbGudaqhaaWcbaGaemiDaqhabaGaemyyaeMaemiBaWMaemiBaWMaeyOeI0IaemiDaqNaemOCaiNaemyyaeMaemOBa4Maem4CamhaaaqabaaakiaawUfacaGLDbaaaaa@8490@
(§4) The equation was fit to the data by nonlinear least-squares analysis. To follow the quenching of the protein's intrinsic fluorescence the excitation and emission wavelengths were set to 280 nm and 340 nm, respectively, while the protein was titrated with all-trans retinol. For the quenching studies the inner filter effect was accounted for by graphical correction as previously described. Fluorescence measurements were made using an SLM 8000TM C photon counting spectrofluorometer corrected for wavelength dependence of source energy and detector response.

full-length Xenopus IRBP = target: T1, full-length Xenopus IRBP (Xenopus laevis, UniProt Q7SZI7); test: Fluorometric titration (ligand fluorescence enhancement, protein quenching, energy transfer); assay type: binding
T1 construct: We expressed the full-length IRBP as well as its individual modules as thioredoxin-fusion proteins using pTrxFus and pThioHis vectors; made in house; host or cells: E. coli Top10 (pThioHis)
Excerpt: The binding parameters of retinoid-binding proteins including IRBP may be determined by fluorescence spectroscopy. The method utilizes changes in quantum yield occurring during ligand binding. Such changes are represented by enhancement of ligand fluorescence, quenching of intrinsic protein fluorescence, and transfer of energy from protein to bound ligand. Fluorescence enhancement occurs if the quantum yield of the ligand's fluorescence is higher in the hydrophobic environment of the ligand-binding domain compared to that outside of the domain.
as §1, with “Enhancement of retinol fluorescence and quenching of the intrinsic protein fluorescence were used to monitor binding of all-trans retinol to the recombinant IRBPs.” left out, “[…],” for “where excitation is at 330 nm and emission is monitored at 480,”
as §2, §3
The equation was fit to the data by nonlinear least-squares analysis. […] For the quenching studies the inner filter effect was accounted for by graphical correction as previously described. Fluorescence measurements were made using an SLM 8000TM C photon counting spectrofluorometer corrected for wavelength dependence of source energy and detector response.

Xenopus IRBP Module 2 = target: T2, Xenopus IRBP Module 2 (Xenopus laevis, UniProt Q7SZI7); set-up: method as in Loew et al. Exp Eye Res. 2001, 73:257–264; conditions: ref Loew et al. Exp Eye Res. 2001, 73:257–264, cited from earlier work
T2 construct: cDNAs corresponding to the full-length IRBP, module 1, and module 2 were expressed in pThioHis; modules 3 and 4 were expressed in pTrxFus; made in house; host or cells: E. coli Top10 (pThioHis)
T2 sequence (Q7SZI7 319-617 limits assumed): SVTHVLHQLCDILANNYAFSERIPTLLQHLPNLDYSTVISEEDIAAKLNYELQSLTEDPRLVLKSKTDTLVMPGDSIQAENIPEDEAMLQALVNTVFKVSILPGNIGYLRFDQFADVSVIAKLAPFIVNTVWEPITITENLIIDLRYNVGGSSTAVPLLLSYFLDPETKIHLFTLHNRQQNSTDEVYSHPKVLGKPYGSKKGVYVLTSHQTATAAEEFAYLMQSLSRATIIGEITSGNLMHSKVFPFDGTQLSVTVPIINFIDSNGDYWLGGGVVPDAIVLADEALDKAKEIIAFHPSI

Xenopus IRBP Module 4 = target: T3, Xenopus IRBP Module 4 (Xenopus laevis, UniProt Q7SZI7); test: Fluorometric titration (enhancement, quenching); assay type: binding
T3 construct: cDNAs corresponding to the full-length IRBP, module 1, and module 2 were expressed in pThioHis; modules 3 and 4 were expressed in pTrxFus; made in house; host or cells: E. coli GI724 / GI698 (pTrxFus)
Excerpt: as §1, §2, §3, §4

Xenopus IRBP Module 3 = target: T4, Xenopus IRBP Module 3 (Xenopus laevis, UniProt Q7SZI7); test: Fluorometric titration (enhancement, quenching); assay type: binding
T4 construct: cDNAs corresponding to the full-length IRBP, module 1, and module 2 were expressed in pThioHis; modules 3 and 4 were expressed in pTrxFus; made in house; host or cells: E. coli GI724 / GI698 (pTrxFus)
Excerpt: as §1, §2, §3, §4

[1] = 9-AS fluorescence enhancement, ex 360 nm, em 440 nm
[2] = 9-AS fluorescence enhancement, ex 360 nm, em 440 nm, read-out: Kd, Enhancement
[3] = quenching by 9-AS, ex 280 nm, em 340 nm
[4] = quenching by 9-AS, ex 280 nm, em 340 nm, read-out: Kd, Quenching

T4 sequence (Q7SZI7 616-922): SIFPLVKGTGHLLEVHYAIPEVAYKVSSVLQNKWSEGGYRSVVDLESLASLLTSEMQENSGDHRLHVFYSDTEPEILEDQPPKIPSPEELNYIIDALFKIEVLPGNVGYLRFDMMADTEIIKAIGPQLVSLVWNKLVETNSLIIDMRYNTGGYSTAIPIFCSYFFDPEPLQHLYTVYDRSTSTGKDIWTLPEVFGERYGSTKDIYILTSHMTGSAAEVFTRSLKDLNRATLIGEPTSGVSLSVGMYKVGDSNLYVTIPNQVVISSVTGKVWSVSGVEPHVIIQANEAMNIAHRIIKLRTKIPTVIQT
T3 sequence (Q7SZI7 923-1219): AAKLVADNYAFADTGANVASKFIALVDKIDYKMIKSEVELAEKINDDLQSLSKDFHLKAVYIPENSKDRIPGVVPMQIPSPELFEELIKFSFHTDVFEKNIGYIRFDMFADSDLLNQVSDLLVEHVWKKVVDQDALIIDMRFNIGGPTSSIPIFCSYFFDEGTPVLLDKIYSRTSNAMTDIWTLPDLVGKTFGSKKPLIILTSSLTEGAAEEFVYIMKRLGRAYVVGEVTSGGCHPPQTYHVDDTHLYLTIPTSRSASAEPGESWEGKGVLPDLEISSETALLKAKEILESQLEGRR
Xenopus IRBP Module 1, sequence (Q7SZI7 23-315): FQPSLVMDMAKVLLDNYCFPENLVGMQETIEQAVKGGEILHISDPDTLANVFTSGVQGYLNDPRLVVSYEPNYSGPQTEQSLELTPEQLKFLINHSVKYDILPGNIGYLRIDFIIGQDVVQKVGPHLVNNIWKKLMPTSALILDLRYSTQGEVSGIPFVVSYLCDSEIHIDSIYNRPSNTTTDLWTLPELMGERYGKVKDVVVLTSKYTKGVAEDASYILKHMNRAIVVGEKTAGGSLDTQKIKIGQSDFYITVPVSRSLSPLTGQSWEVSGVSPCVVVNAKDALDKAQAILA
T1 sequence (Q7SZI7 23-1219): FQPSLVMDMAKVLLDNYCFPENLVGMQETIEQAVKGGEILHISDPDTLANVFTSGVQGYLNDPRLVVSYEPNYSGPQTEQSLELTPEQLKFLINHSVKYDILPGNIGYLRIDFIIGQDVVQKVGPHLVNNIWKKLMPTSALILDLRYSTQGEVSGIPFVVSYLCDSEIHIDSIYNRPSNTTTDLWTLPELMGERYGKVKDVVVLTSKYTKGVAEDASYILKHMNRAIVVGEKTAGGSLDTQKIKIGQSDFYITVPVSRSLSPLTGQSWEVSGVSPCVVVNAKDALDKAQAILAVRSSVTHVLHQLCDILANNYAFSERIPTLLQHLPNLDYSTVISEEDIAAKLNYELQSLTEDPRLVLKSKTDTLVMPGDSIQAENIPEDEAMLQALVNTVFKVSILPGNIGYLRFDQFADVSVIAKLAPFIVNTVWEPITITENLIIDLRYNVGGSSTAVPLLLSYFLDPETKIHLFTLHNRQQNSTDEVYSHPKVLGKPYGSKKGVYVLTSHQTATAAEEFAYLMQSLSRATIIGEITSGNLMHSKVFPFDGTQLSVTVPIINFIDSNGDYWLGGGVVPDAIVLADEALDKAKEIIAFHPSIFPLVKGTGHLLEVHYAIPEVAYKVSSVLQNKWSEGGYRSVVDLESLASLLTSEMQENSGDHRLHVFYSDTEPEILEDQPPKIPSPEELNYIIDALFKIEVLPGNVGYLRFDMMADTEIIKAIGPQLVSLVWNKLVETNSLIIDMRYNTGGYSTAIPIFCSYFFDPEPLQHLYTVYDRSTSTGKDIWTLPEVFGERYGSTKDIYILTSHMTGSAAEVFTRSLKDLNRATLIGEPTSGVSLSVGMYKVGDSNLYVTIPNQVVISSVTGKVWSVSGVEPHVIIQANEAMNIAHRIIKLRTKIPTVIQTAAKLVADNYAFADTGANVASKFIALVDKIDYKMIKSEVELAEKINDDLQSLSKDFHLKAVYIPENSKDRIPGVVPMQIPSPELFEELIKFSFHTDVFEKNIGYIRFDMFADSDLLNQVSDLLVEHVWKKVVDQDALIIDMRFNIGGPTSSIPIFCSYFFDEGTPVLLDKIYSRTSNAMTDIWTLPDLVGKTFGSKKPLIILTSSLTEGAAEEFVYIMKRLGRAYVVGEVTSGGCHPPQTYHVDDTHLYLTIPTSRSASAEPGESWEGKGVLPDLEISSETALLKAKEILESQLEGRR

## CCCCCCCCCC(CCCCCCCC(=O)O)OC(=O)c1c2ccccc2cc2ccccc12 (centres unmarked) [9-AS, 9-(9-anthroyloxy) stearic acid]
Xenopus IRBP Module 1; [1]
  Binding sites (N), Enhancement: 2.55 ± 0.24
Xenopus IRBP Module 1; [2]
  Kd: 0.33 ± 0.15 µM
Xenopus IRBP Module 1; [3]
  Binding sites (N), Quenching: 0.97 ± 0.19
Xenopus IRBP Module 1; [4]
  Kd: 0.42 ± 0.1 µM
full-length Xenopus IRBP; [1]
  Binding sites (N), Enhancement: 2.58 ± 0.17
full-length Xenopus IRBP; [2]
  Kd: 0.28 ± 0.07 µM
full-length Xenopus IRBP; quenching of protein fluorescence by 9-AS, ex 280 nm, em 340 nm
  Binding sites (N), Quenching: 0.18 ± 0.29
full-length Xenopus IRBP; quenching of protein fluorescence by 9-AS, ex 280 nm, em 340 nm, read-out: Kd, Quenching
  Kd: 0.29 ± 0.11 µM
Xenopus IRBP Module 2; [1]
  Binding sites (N), Enhancement: 1.49 ± 0.15
Xenopus IRBP Module 2; [2]
  Kd: 0.25 ± 0.08 µM
Xenopus IRBP Module 2; [3]
  Binding sites (N), Quenching: 0.93 ± 0.06
Xenopus IRBP Module 2; [4]
  Kd: 0.13 ± 0.02 µM
Xenopus IRBP Module 4; [1]
  Binding sites (N), Enhancement: 2.23 ± 0.09
Xenopus IRBP Module 4; [2]
  Kd: 0.082 ± 0.037 µM
Xenopus IRBP Module 4; [3]
  Binding sites (N), Quenching: 0.30 ± 0.09
Xenopus IRBP Module 4; [4]
  Kd: 0.16 ± 0.04 µM
Xenopus IRBP Module 3; [1]
  Binding sites (N), Enhancement: 2.76 ± 0.09
Xenopus IRBP Module 3; [2]
  Kd: 0.16 ± 0.41 µM
Xenopus IRBP Module 3; [3]
  Binding sites (N), Quenching: 1.06 ± 0.07
Xenopus IRBP Module 3; [4]
  Kd: 0.19 ± 0.03 µM
